Reference: patent US20170000112A1, “METHOD OF PRESERVING CUT ROSES DURING TRANSPORTATION AND STORAGE AND SHIPMENT KIT CONTAINING CUT ROSES” (priority 2013, published 2017)

Legend:
cut rose flowers = conditions: sprayed or held in solution prior to simulated home conditions; cited from earlier work
rose flower buds = conditions: 350 mg/L (ca. 1 mM) solution; preliminary experiments, data not shown; cited from earlier work
cut roses [1] = assay: Vase life of cut roses after 14 days simulated dry refrigerated transport (Examples 1 and 2); assay type: in vivo, rose; conditions: flower heads dipped 3 s in 80 ppm BA, 14 days dry transport at 2° C.
Method: Freshly cut red roses (Red Desire') were obtained from a greenhouse in the Netherlands. These flowers were randomly divided into three different sets . Within 4 hours of cutting, one set of flowers (set A) was subjected to a preservation treatment that involved dipping of the flower heads into an aqueous solution of 80 ppm 6-benzylaminopurine (BA) in tap water for 3 seconds. Immediately after the preservation treatment, each set of flowers was bunched and sleeved (6 flowers per sleeved bunch) after the ends of the flower stems had been cut off, and in total 108 flowers of each set were kept 24 hours at 2° C. under dark conditions in buckets (54 stems per bucket) with the flower stems immersed in 2 liters of water containing 1 ml/l of a flower pre-treatment product ([…]® Grow 20). Following this pre-treatment, the sleeved flower bunches of set A were removed from the buckets and packaged without any external water supply in a carton box (l×b×h=1.0×0.4×0.2 m). The carton box contained 18 sleeved flower bunches. One of the other two sets of flowers (Control) was packaged in the same way. The remaining set of flowers (Reference) was not packaged dry into a carton box, but immediately subjected to the sequence of storage and display conditions described in Table 1. [table] Before the refrigerated storage and the home display the ends of the flower stems were cut off. The packaged flowers (sleeved and in a carton box) belonging to Set A and the Control set were subjected to simulated refrigerated transport under dry, dark conditions for 14 days at 2° C. before also being subjected to the sequence of storage and display conditions described in Table 1. Before the refrigerated storage stage the BA concentrations in the flower heads were analyzed. In addition, the vase life of the flowers was assessed by an expert panel during the home display period. Example 1 was repeated, except that this time, instead of using cut roses obtained from a Dutch green house, cut roses that had been air transported under dry conditions from Kenya to the Netherlands were used. Three different types of cut red roses were used in this study, namely 'Hot Blood', 'Rhodos' and 'Incredible'.

[2] = test system: flower spikes of gladiolus and carnation; conditions: stems immersed in 10, 30 and 75 ppm solution; spikes previously wilted dry for 4 hours; cited from earlier work
cut red roses [3] = assay: Colour retention of red roses after 11 days on the vase (Examples 1 and 2); assay type: in vivo, rose; conditions: dipped in 80 ppm BA
cut red roses [4] = assay: Vase life, dipped/dry versus BA in bucket water, 8 days at 2° C. (Example 6); assay type: in vivo, rose
Method: Example 5 was repeated, except that this time the sets of cut flowers were kept under refrigerated and dark conditions for 8 days instead of 24 hours.

cut roses [5] = assay: Vase life and leaf quality after 9 days simulated dry transport (Examples 3 and 4); assay type: in vivo, rose; conditions: for Vase life: dipped in 80 ppm BA, 9 days dry transport; for Leaf quality: visual score after 12 days on the vase, 1=poor, 5=good
Description: Example 1 was repeated, except that this time no Reference set was used, i.e. the study used two sets of flowers that were both transported without water supply (dry). Furthermore, the cut roses used in the study had been air transported under dry conditions from Colombia to the Netherlands. Bunches containing 4 flowers of each of three different types of roses (‘Red Intuition’ (red), ‘Citran’ (yellow), ‘Vendela’ (white) were used in this study. The duration of simulated transportation was reduced from 14 to 9 days and the duration of shop display was increased from 2 to 3 days.
Besides the vase life of the flowers the expert panel also scored visual leaf quality after 12 days on the vase (1=poor, 5=good). The BA concentration in the flower heads was not analyzed in this study.
Example 3 was repeated, except that this time the following three different types of roses were used in the study: • ‘Freedom’ (red) • ‘Bonanza’ (peach) • ‘Sandra’ (pink)

cut red roses [6] = assay: Vase life, dipped/dry versus BA in bucket water, 24 hours at 2° C. (Example 5); assay type: in vivo, rose
Description: Three different types of cut red roses were used in this study, namely ‘Hot Blood’, ‘Rhodos’ and ‘Incredible’. For each type flowers were randomly divided into four different sets.
One set of flowers (set A) was subjected to a preservation treatment that involved dipping of the flower heads into an aqueous solution of 80 ppm 6-benzylaminopurine (BA) in tap water for 3 seconds.
Immediately after the preservation treatment of set A, each set of flowers was bunched and sleeved (10 flowers per sleeved bunch) after the ends of the flower stems had been cut off, and in total 20 flowers of each set were kept for 4 hours at 20° C. under dark conditions in buckets (60 stems per bucket) with the flower stems immersed in 2 liters of water containing 1 ml/l of a flower pre-treatment product (Chrysal® Grow 20).
Following this pre-treatment, the sleeved flower bunches of set A were removed from the buckets and packaged without any external water supply in a carton box (l×b×h=1.0×0.4×0.2 m). The carton box contained 6 sleeved flower bunches.
One of the other three sets of non-dipped flowers(Control) was packaged in the same way, i.e. in carton boxes without external water supply.
The remaining two sets of non-dipped flowers (sets B and C) were introduced into buckets (20 stems per bucket) that each contained 2 liters of water.
The bucket water of set B contained 7 ppm BA. The bucket water of set C contained 7 ppm BA as well as 5 ml/l of Chrysal® Clear Professional 2 (CCP2). This product is based on sugars and acidifier, while biocides are present to protect these active ingredients against bacterial attack.
The four sets of roses were kept at 2° C. under dark conditions for 24 hours, following which each set was transferred into buckets (60 stems per bucket) that contained 2 liters of water to which 5 ml/l Chrysal® Clear Professional 2 had been added. Before introducing the cut flowers into the buckets, the ends of the flower stems were cut off. The buckets holding the sleeved cut flowers were kept for 4 days under dark, refrigerated (2° C.) conditions, and subsequently for 2 days at 20° C. under daylight conditions (12 hours 1000 lux and 12 hours dark).
Next, for each of the three different type of cut red roses the two bunches of 10 cut flowers from each of the sets were introduced in vases, each holding 1 liter of water to which 10 g/l Chrysal® Clear had previously been added. Before introducing the cut flowers into the vases, the ends of the flower stems were cut off. The vases holding the flowers were kept at 20° C. under daylight conditions (12 hours 1000 lux and 12 hours dark).
The quality of the cut flowers was assessed at regular intervals by an expert panel and from these assessments the average vase life was determined for the cut flowers of each of the 4 sets.
The letters behind the numerical scores in Table 8 indicate to which extent the difference between the 4 scores for a given set of cut flowers are statistically significant (at a P-value of 0.05). Scores that are followed by the same latter are not statistically significant.

c1coc(CNc2ncnc3[nH]cnc23)c1 [KI, kinetin]
Effect on rose vase life (cut rose flowers): did not benefit on rose vase life

C=C1C[C@]23C[C@@]1(O)CC[C@H]2[C@@]12C=C[C@H](O)[C@](C)(C(=O)O1)[C@H]2[C@@H]3C(=O)O [GA3]
Effect on rose flower vase-life when applied as a spray (rose flower buds): optimal for improving rose flower vase-life

c1ccc(CNc2ncnc3nc[nH]c23)cc1 [BA, 6-benzylaminopurine]
Vase life (cut roses [1]; 'Hot Blood' (Kenya)): 13.9 days | Vase life (cut roses [1]; 'Incredible' (Kenya)): 13.0 days | Vase life (cut roses [1]; 'Red Desire'): 12.8 days | Vase life (cut roses [1]; 'Rhodos' (Kenya)): 14.9 days | Effect on vase life of flower spikes [2]: extended the vase life | Effect on rose vase life (cut rose flowers): did not benefit on rose vase life | Colour of the red roses after 11 days on the vase (cut red roses [3]; 'Hot Blood', control showed blueing/darkening): retained most of their original red colour | Colour of the red roses after 11 days on the vase (cut red roses [3]; 'Incredible', control showed blueing/darkening): retained most of their original red colour | Colour of the red roses after 11 days on the vase (cut red roses [3]; 'Red Desire', control showed bluing/darkening): retained most of their original red colour | Colour of the red roses after 11 days on the vase (cut red roses [3]; 'Rhodos', control showed blueing/darkening): retained most of their original red colour | Average vase life of the dipped set versus the non-dipped sets (cut red roses [4]; 'Hot Blood', P-value of 0.05, 8 days at 2° C.): higher than that of the non-dipped sets, but the difference with the control set and set C was not statistically significant | Vase life (cut red roses [4]; 'Hot Blood', non-dipped, wet, stems in bucket water containing 7 ppm BA, 8 days at 2° C.): 7.3 days | Vase life (cut red roses [4]; 'Hot Blood', set A, flower heads dipped in 80 ppm BA, dry in carton box 8 days at 2° C.): 11.8 days | Vase life (cut red roses [4]; 'Incredible', non-dipped, wet, stems in bucket water containing 7 ppm BA, 8 days at 2° C.): 10.4 days | Vase life (cut red roses [4]; 'Incredible', set A, flower heads dipped in 80 ppm BA, dry in carton box 8 days at 2° C.): 14.8 days | Vase life (cut red roses [4]; 'Rhodos', non-dipped, wet, stems in bucket water containing 7 ppm BA, 8 days at 2° C.): 8.2 days | Vase life (cut red roses [4]; 'Rhodos', set A, flower heads dipped in 80 ppm BA, dry in carton box 8 days at 2° C.): 13.5 days | Vase life of the dipped set versus the non-dipped sets (cut red roses [4]; two of the rose types ('Rhodos', 'Incredible'), P-value of 0.05, 8 days at 2° C.): significantly longer vase life | Vase life (cut roses [5]; 'Bonanza' (peach)): 14.5 days | Vase life (cut roses [5]; 'Citran' (yellow, Colombia)): 12.5 days | Vase life (cut roses [5]; 'Freedom' (red)): 18.8 days | Vase life (cut roses [5]; 'Red Intuition' (red, Colombia)): 9.6 days | Vase life (cut roses [5]; 'Sandra' (pink)): 17.6 days | Vase life (cut roses [5]; 'Vendela' (white, Colombia)): 13.0 days | Leaf quality (cut roses [5]; Example 3 (Red Intuition, Citran, Vendela)): 3.0 | Leaf quality (cut roses [5]; Example 4 (Freedom, Bonanza, Sandra)): 4.0 | Vase life (cut red roses [6]; 'Hot Blood', non-dipped, wet, stems in bucket water containing 7 ppm BA, 24 hours at 2° C.): 11.2 days | Vase life (cut red roses [6]; 'Hot Blood', set A, flower heads dipped in 80 ppm BA, dry in carton box 24 hours at 2° C.): 16.2 days | Vase life (cut red roses [6]; 'Incredible', non-dipped, wet, stems in bucket water containing 7 ppm BA, 24 hours at 2° C.): 11.1 days | Vase life (cut red roses [6]; 'Incredible', set A, flower heads dipped in 80 ppm BA, dry in carton box 24 hours at 2° C.): 17.2 days | Vase life (cut red roses [6]; 'Rhodos', non-dipped, wet, stems in bucket water containing 7 ppm BA, 24 hours at 2° C.): 9.4 days | Vase life (cut red roses [6]; 'Rhodos', set A, flower heads dipped in 80 ppm BA, dry in carton box 24 hours at 2° C.): 13.9 days | Vase life of the dipped set versus the non-dipped sets (cut red roses [6]; each of the rose types, P-value of 0.05, 24 hours at 2° C.): significantly longer vase life
